According to publication PMC7377239, “Cardiovascular Effects of Polychlorinated Biphenyls and Their Major Metabolites” (Environmental Health Perspectives, 2020):
Like-named read-outs stand apart in the source and are kept apart here.

How the values were obtained:
HUVECs [1] = assay: High-content imaging cytotoxicity in HUVECs, 24 h; type: cell-based, human; settings: Homo sapiens, HUVEC, 24 h, HUVECs; for viability at 0.01 µM / activity at 0.01 µM: concentration 0.01 µM; for viability at 0.01 µM / activity at 0.01 µM / viability at 0.1 µM / activity at 0.1 µM / viability at 1 µM / activity at 1 µM / viability at 10 µM / activity at 10 µM / viability at 100 µM / activity at 100 µM: 0.00 µM = 100.00; for viability at 0.1 µM / activity at 0.1 µM: concentration 0.10 µM; for viability at 1 µM / activity at 1 µM: concentration 1.00 µM; for viability at 10 µM / activity at 10 µM: concentration 10.00 µM; for viability at 100 µM / activity at 100 µM: concentration 100.00 µM; for minimal effective concentration: MAX 100.00
In short: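 Read-out: multiwavelength high-content imaging of Hoechst 33342, MitoTracker Orange and calcein AM after 24 h compound exposure of confluent HUVEC monolayers. POD values were set using a one-SD cutoff from vehicle (0.5% DMSO) means; with no concentration–response, 100μM was assigned as no observable adverse effect level.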

HUVECs [2] = assay: Tube formation (tubulogenesis) assay in HUVECs, 18 h; type: cell-based, human; settings: Homo sapiens, HUVEC, 18 h, HUVECs tube formation; for activity at 0.01 µM: concentration 0.01 µM; for activity at 0.1 µM: concentration 0.10 µM; for activity at 1 µM: concentration 1.00 µM; for activity at 10 µM: concentration 10.00 µM; for activity at 100 µM: concentration 100.00 µM
In short: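 HUVECs (passage 1–5) seeded on reduced-growth-factor basement membrane and exposed to compounds overnight at 37°C, 5% CO2, in 2× maintenance medium with 12.5 ng/mL VEGF; 0.5% DMSO vehicle. Calcein AM-stained tube networks imaged and analysed; vehicle-normalized readouts fit to four-parameter logistic, POD set at one SD of vehicle means.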

[3] = 24 hr, read-out: huvec.cyto.24hr
[4] = 24 hr, read-out: huvec.mito.24hr
[5] = 24 hr, read-out: huvec.mitoint.24hr
[6] = 24 hr, read-out: huvec.nma.24hr
[7] = 24 hrs, read-out: huvec.tc.24hrs
[8] = 0.00 µM = 100.00, read-out: huvec.mtl.18hr
[9] = 0.00 µM = 100.00, read-out: huvec.tlps.18hr
[10] = 0.00 µM = 100.00, read-out: huvec.tta.18hr
[11] = 0.00 µM = 100.00, read-out: huvec.ttl.18hr

## Clc1cc(Cl)c(-c2cc(Cl)c(Cl)cc2Cl)cc1Cl [PCB153]
HUVECs [1]; [3]
  viability at 0.01 µM: 89.7%
  viability at 0.1 µM: 85%
  viability at 1 µM: 94.2%
  viability at 10 µM: 66.9%
  viability at 100 µM: 66.2%
HUVECs [1]; [4]
  activity at 0.01 µM: 88.6%
  activity at 0.1 µM: 83.8%
  activity at 1 µM: 93.9%
  activity at 10 µM: 53.7%
  activity at 100 µM: 34.5%
HUVECs [1]; [5]
  activity at 0.01 µM: 89.5%
  activity at 0.1 µM: 93%
  activity at 1 µM: 92.2%
  activity at 10 µM: 45.8%
  activity at 100 µM: 13.2%
HUVECs [1]; [6]
  activity at 0.01 µM: 98.4%
  activity at 0.1 µM: 97%
  activity at 1 µM: 97.3%
  activity at 10 µM: 66.9%
  activity at 100 µM: 65.8%
HUVECs [1]; 24 hr, read-out: huvec.cyto.24hr POD
  minimal effective concentration: 0.0171 µM
HUVECs [1]; 24 hr, read-out: huvec.mito.24hr POD
  minimal effective concentration: 0.75 µM
HUVECs [1]; 24 hr, read-out: huvec.mitoint.24hr POD
  minimal effective concentration: 0.83 µM
HUVECs [1]; 24 hr, read-out: huvec.nma.24hr POD
  minimal effective concentration: 1.01 µM
HUVECs [1]; [7]
  viability at 0.01 µM: 89.7%
  viability at 0.1 µM: 85%
  viability at 1 µM: 94.2%
  viability at 10 µM: 67%
  viability at 100 µM: 66.2%
HUVECs [1]; 24 hrs, read-out: huvec.tc.24hrs POD
  minimal effective concentration: 0.0171 µM
HUVECs [2]; MAX 100.00, read-out: huvec.mtl.18hr POD
  minimal effective concentration: 19.8 µM
HUVECs [2]; MAX 100.00, read-out: huvec.tlps.18hr POD
  minimal effective concentration: 61.8 µM
HUVECs [2]; MAX 100.00, read-out: huvec.tta.18hr POD
  minimal effective concentration: 8.87 µM
HUVECs [2]; MAX 100.00, read-out: huvec.ttl.18hr POD
  minimal effective concentration: 0.13 µM
HUVECs [2]; [8]
  activity at 0.01 µM: 88.3%
  activity at 0.1 µM: 95.5%
  activity at 1 µM: 88.7%
  activity at 10 µM: 95.2%
  activity at 100 µM: 65.2%
HUVECs [2]; [9]
  activity at 0.01 µM: 103%
  activity at 0.1 µM: 80.3%
  activity at 1 µM: 89.4%
  activity at 10 µM: 107%
  activity at 100 µM: 61%
HUVECs [2]; [10]
  activity at 0.01 µM: 72.1%
  activity at 0.1 µM: 103%
  activity at 1 µM: 73.7%
  activity at 10 µM: 115%
  activity at 100 µM: 54.1%
HUVECs [2]; [11]
  activity at 0.01 µM: 66.9%
  activity at 0.1 µM: 95.6%
  activity at 1 µM: 66.3%
  activity at 10 µM: 106%
  activity at 100 µM: 48%
